Measurements as given in patent US10183947B2, “Pyrazole derivatives useful as 5-lipoxygenase activating protein (FLAP) inhibitors” (ASTRAZENECA AB, priority 2015, dated 2019).
Where two headings read alike, the source gives them in different places.

Tests used:
[1] = target: FLAP (human ALOX5AP expressed in COS-7 cell membranes) (Homo sapiens (Human), UniProt P20292); assay: FLAP Binding Assay (Test A), competition binding with 3H-MK591 as tracer; settings: competition with 3H-MK591 (2 nM), membranes from COS-7 cells expressing human ALOX5AP, 60 min at rt
Experimental: FLAP Binding Assay (Test A) Compounds were tested in a competition binding assay using ^3H-MK591 as tracer. […] Med. Chem. […] A 100,000×g pellet from COS-7 cells stably transfected with a plasmid expressing human ALOX5AP was the source of FLAP. […] Following filtration, filter plates were dried 12 h at RT (or 50° C. for 1 hour). 50 μL scintillant was then added, the filterplates were sealed and radioactivity was measured in a microbeta counter. Specific binding was defined as total binding minus non-specific binding. Total binding was defined as ^3H-MK591 bound to membranes in the absence of competitor, non-specific binding was defined as ^3H-MK591 in the presence of 0.1 mM MK-591. IC50 values were determined by plotting % inhibition versus log compound concentration and using a one site dose response model.

[2] = tested on: LTB4 production in fresh human whole blood; assay: FLAP Whole Blood Assay (Test B), inhibition of LTB4 production; format: cell-based; settings: then calcium ionophore A23187, LTB4 by EIA
Experimental: FLAP Whole Blood Assay (Test B)
Compounds were tested for the inhibition of LTB4 production in fresh human whole blood obtained by venapuncture using heparin to prevent clotting. 1.5 μL compounds or DMSO carrier were dispensed into the wells of a 96-well deep-well plate in 3-fold dilution series. 500 μL hepamised whole blood was then added followed by incubation at 37° C. for 30 min (method A) or 4 h (method B). 100 μL blood was subsequently transferred in triplicate to pre-dispensed 0.5 μL 2 mM calcium ionophore (calcimycin; A23187) in a second 96-well plate. Following incubation at 37° C. for 20 min, the assays were stopped by adding 10 μL of stop solution (100 mM EGTA, pH 7.4) and the plate was transferred to ice. The plate was centrifuged at 3000 rpm at 4° C. for 10 min and […] was transferred to a fresh 96 well plate containing 90 μL pre-dispensed EIA assay buffer (0.1 M phosphate buffer+0.1% BSA). LTB4 was then measured using reagents from a commercial EIA (Cayman Chemicals). LTB4 production was defined as the LTB4 level in the presence of a given concentration of test compound minus the LTB4 level in the presence of 50 nM 5-[[4-[(2S,4R)-4-hydroxy-2-methyl-tetrahydropyran-4-yl]-2-thienyl]sulfanyl]-1-methyl-indolin-2-one. (Preparation of 5-[[4-[(2S,4R)-4-hydroxy-2-methyl-tetrahydropyran-4-yl]-2-thienyl]sulfanyl]-1-methyl-indolin-2-one was described in Org. Process Res. Dev., 2005, 9, 555-569 or EP623614 B1). Inhibition of LTB4 production was defined as the LTB4 level in the presence of a given concentration of test compound expressed as a % of the LTB4 level in the presence of DMSO. IC50 values were determined by plotting % inhibition versus log compound concentration and using a one site dose response model.

[3] = 0.5 h, method A: compound incubated with human whole blood at 37° C. for 30 min, read-out: IC50 nM (method A)
[4] = method B: compound incubated with human whole blood at 37° C. for 4 h, read-out: IC50 nM (method B)

Chain of FLAP (human ALOX5AP expressed in COS-7 cell membranes) (P20292 whole entry): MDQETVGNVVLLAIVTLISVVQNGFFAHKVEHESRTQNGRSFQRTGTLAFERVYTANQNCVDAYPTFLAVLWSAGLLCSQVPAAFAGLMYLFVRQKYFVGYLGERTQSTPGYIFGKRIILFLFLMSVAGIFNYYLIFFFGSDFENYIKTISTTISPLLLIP

| Compound | IC50 [1] | IC50 [2, 3] | IC50 [2, 4] |
| --- | --- | --- | --- |
| Cn1ncc(NC(=O)C2CCCCC2C(=O)c2ccc(-c3ccn[nH]3)cc2Cl)c1C(N)=O (racemic) [Example 31, 4-[({(1R,2R and 1S,2S)-2-[2-Chloro-4-(1H-pyrazol-5-yl)benzoyl]-cyclohexyl}carbonyl)amino]-1-methyl-1H-pyrazole-5-carboxamide] | 190 nM | – | 390 nM |
| CCn1cc(NC(=O)C2CCCCC2C(=O)c2ccc(-c3ccn[nH]3)cc2)c(C(N)=O)n1 (racemic) [Example 42, 1-Ethyl-4-[({(1R,2R and 1S,2S)-2-[4-(1H-pyrazol-5-yl)benzoyl]-cyclohexyl}carbonyl)amino]-1H-pyrazole-3-carboxamide] | 200 nM | 149 nM | – |
| Cc1coc(NC(=O)C2CCCCC2C(=O)c2ccc(-c3ccn[nH]3)cc2)n1 (racemic) [Example 45, (1R,2R and 1S,2S)—N-(4-Methyl-1,3-oxazol-2-yl)-2-[4-(1H-pyrazol-5-yl)benzoyl]cyclohexanecarboxamide] | 210 nM | – | – |
| O=C(Nc1nc(C2CC2)ns1)C1CCCCC1C(=O)c1ccc(-c2ccn[nH]2)cc1 (racemic) [Example 47, (1R,2R and 1S,2S)—N-(3-Cyclopropyl-1,2,4-thiadiazol-5-yl)-2-[4-(1H-pyrazol-5-yl)benzoyl]cyclohexanecarboxamide] | 53 nM | 260 nM | – |
| Cc1cc(NC(=O)C2CCCCC2C(=O)c2ccc(-c3ccn[nH]3)cc2)sn1 (racemic) [Example 48, (1R,2R and 1S,2S)—N-(3-Methyl-1,2-thiazol-5-yl)-2-[4-(1H-pyrazol-5-yl)benzoyl]cyclohexanecarboxamide] | 23 nM | 270 nM | – |
| Cc1nsc(NC(=O)C2CCCCC2C(=O)c2ccc(-c3ccn[nH]3)cc2)c1C#N (racemic) [Example 49, (1R,2R and 1S,1S)—N-(4-Cyano-3-methyl-1,2-thiazol-5-yl)-2-[4-(1H-pyrazol-5-yl)benzoyl]cyclohexanecarboxamide] | 44 nM | 640 nM | – |
| Cn1cc(NC(=O)C2CCCCC2C(=O)c2ccc(-c3cc[nH]n3)cc2)c(C(N)=O)n1 (single isomer, unassigned) [Example 1, 1-Methyl-4-[({(1R,2R or 1S,2S)-2-[4-(1H-pyrazol-3-yl)benzoyl]-cyclohexyl}carbonyl)amino]-1H-pyrazole-3-carboxamide] | 73 nM | 112 nM | – |
| Cn1cc(NC(=O)C2CCCCC2C(=O)c2ccc(-c3cc[nH]n3)cc2)c(C#N)n1 (single isomer, unassigned) [Example 12, (1R,2R or 1S,2S)—N-(3-Cyano-1-methyl-1H-pyrazol-4-yl)-2-[4-(1H-pyrazol-3-yl)benzoyl]cyclohexanecarboxamide] | 41 nM | – | 100 nM |
| Cn1ncc(NC(=O)C2CCCCC2C(=O)c2ccc(-c3cc[nH]n3)cc2)c1C#N (single isomer, unassigned) [Example 18a, (1R,2R or 1S,2S)—N-(5-Cyano-1-methyl-1H-pyrazol-4-yl)-2-[4-(1H-pyrazol-3-yl)benzoyl]cyclohexanecarboxamide] | 3700 nM | – | – |
| Cn1ncc(NC(=O)C2CCCCC2C(=O)c2ccc(-c3cc[nH]n3)cc2)c1C#N (single isomer, unassigned) [Example 18b, (1S,2S or 1R,2R)—N-(5-Cyano-1-methyl-1H-pyrazol-4-yl)-2-[4-(1H-pyrazol-3-yl)benzoyl]cyclohexanecarboxamide] | 28 nM | – | 114 nM |
| Cn1ncc(NC(=O)C2CCCCC2C(=O)c2ccc(-c3ccn[nH]3)cc2F)c1C(N)=O (single isomer, unassigned) [Example 34, 4-[({(1R,2R or 1S,2S)-2-[2-Fluoro-4-(1H-pyrazol-5-yl)benzoyl]-cyclohexyl}carbonyl)amino]-1-methyl-1H-pyrazole-5-carboxamide] | 41 nM | – | 41 nM |
| Cc1cc(-c2ccc(C(=O)C3CCCCC3C(=O)Nc3cn(C)nc3C(N)=O)c(F)c2)[nH]n1 (single isomer, unassigned) [Example 36, 4-[({(1R,2R or 1S,2S)-2-[2-Fluoro-4-(3-methyl-1H-pyrazol-5-yl)benzoyl]-cyclohexyl}carbonyl)amino]-1-methyl-1H-pyrazole-3-carboxamide] | – | – | 148 nM |
| Cc1cc(-c2ccc(C(=O)[C@@H]3CCCC[C@H]3C(=O)Nc3cn(C)nc3C(N)=O)cc2)n[nH]1 [Example 4, 1-Methyl-4-[({(1R,2R)-2-[4-(3-methyl-1H-pyrazol-5-yl)benzoyl]-cyclohexyl}carbonyl)amino]-1H-pyrazole-3-carboxamide] | – | – | 290 nM |
| Cn1cc(NC(=O)[C@@H]2CCCC[C@H]2C(=O)c2ccc(-c3ccn[nH]3)cc2)c(OC(F)F)n1 [Example 9, (1R,2R)—N-[3-(Difluoromethoxy)-1-methyl-1H-pyrazol-4-yl]-2-[4-(1H-pyrazol-5-yl)benzoyl]cyclohexanecarboxamide] | – | – | 110 nM |
| CNC(=O)c1nn(C)cc1NC(=O)C1CCCCC1C(=O)c1ccc(-c2cc[nH]n2)cc1 [Example 20, N,1-Dimethyl-4-[({(1R,2R and 1S,2S)-2-[4-(1H-pyrazol-3-yl)benzoyl]-cyclohexyl}carbonyl)amino]-1H-pyrazole-3-carboxamide] | – | 281 nM | – |
| Cn1nnc(NC(=O)C2CCCCC2C(=O)c2ccc(-c3ccn[nH]3)cc2)c1C1CC1 [Example 33, (1R,2R and 1S,2S)—N-(5-Cyclopropyl-1-methyl-1H-1,2,3-triazol-4-yl)-2-[4-(1H-pyrazol-5-yl)benzoyl]cyclohexanecarboxamide] | – | – | 117 nM |

Continued, values first:

| IC50 [1] | IC50 [2, 3] | IC50 [2, 4] | Compound |
| --- | --- | --- | --- |
| 400 nM | 654 nM | – | COc1c(NC(=O)C2CCCCC2C(=O)c2ccc(-c3cc[nH]n3)cc2)cnn1C (racemic) [Example 14, (1R,2R and 1S,2S)—N-(5-Methoxy-1-methyl-1H-pyrazol-4-yl)-2-[4-(1H-pyrazol-3-yl)benzoyl]cyclohexanecarboxamide] |
| 170 nM | – | 915 nM | Cc1cc(-c2ccc(C(=O)C3CCCCC3C(=O)Nc3cnn(C)c3C(N)=O)c(Cl)c2)[nH]n1 (racemic) [Example 32, 4-[({(1R,2R and 1S,2S)-2-[2-Chloro-4-(3-methyl-1H-pyrazol-5-yl)benzoyl]cyclohexyl}carbonyl)amino]-1-methyl-1H-pyrazole-5-carboxamide] |
| 46 nM | 197 nM | – | Cc1cc(NC(=O)C2CCCCC2C(=O)c2ccc(-c3ccn[nH]3)cc2)on1 (racemic) [Example 44, (1R,2R and 1S,2S)—N-(3-Methyl-1,2-oxazol-5-yl)-2-[4-(1H-pyrazol-5-yl)benzoyl]cyclohexanecarboxamide] |
| 86 nM | 170 nM | – | Cc1cc(-c2ccc(C(=O)C3CCCCC3C(=O)Nc3cnn(C)c3C#N)cc2)[nH]n1 (racemic) [Example 46, (1R,2R and 1S,2S)—N-(5-Cyano-1-methyl-1H-pyrazol-4-yl)-2-[4-(3-methyl-1H-pyrazol-5-yl)benzoyl]cyclohexanecarboxamide] |
| – | – | 95 nM | Cc1cc(-c2ccc(C(=O)C3CCCCC3C(=O)Nc3cn(C)nc3C#N)cc2)[nH]n1 (single isomer, unassigned) [Example 5b, (1R,2R or 1S,2S)—N-(3-Cyano-1-methyl-1H-pyrazol-4-yl)-2-[4-(3-methyl-1H-pyrazol-5-yl)benzoyl]cyclohexanecarboxamide] |
| – | – | 70 nM | Cc1cc(-c2ccc(C(=O)[C@@H]3CCCC[C@H]3C(=O)Nc3cnn(C)c3C(N)=O)cc2)[nH]n1 [Example 3, 1-Methyl-4-[({(1R,2R)-2-[4-(3-methyl-1H-pyrazol-5-yl)benzoyl]cyclohexyl}-carbonyl)amino]-1H-pyrazole-5-carboxamide] |
| – | – | 260 nM | Cc1cc(-c2ccc(C(=O)[C@@H]3CCCC[C@H]3C(=O)Nc3cnn(C)c3S(N)(=O)=O)cc2)[nH]n1 [Example 13, (1R,2R)-2-[4-(3-Methyl-1H-pyrazol-5-yl)benzoyl]-N-(1-methyl-5-sulfamoyl-1H-pyrazol-4-yl)cyclohexanecarboxamide] |
